Results on 1 compound are retold here after patent publication US11612586B2, “Indole regulation of antigen presenting cells” (THE TEXAS A&M UNIVERSITY SYSTEM, priority 2016, dated 2023).

In one data set the test system is CCR9. Put plainly: CCR9 surface expression on BMDCs. The format is cell-based, mouse. The settings on record: BMDCs cultured from day 3 with indole (1 mM) or retinoic acid (1 μM), day 7. How it is done:
FIGS. 12A and 12B graphically illustrate that indole induces CCR9 and B220 on DCs. BMDCs were cultured in the presence of indole (1 mM), retinoic acid (1 μM), or DMF solvent control from day 3. On day 7, DCs were surface stained for expression of CCR9 and B220 and analyzed by flow cytometry. […] Mean of three independent experiments. * indicates p<0.05 for one-way ANOVA followed by Dunnett's post-test.
Dendritic cell subsets bear numerous surface antigens that regulate their migration and localization. Because indole is produced in the gut and appears to induce anti-inflammatory properties in DCs (as described above), it was hypothesized that indole might affect migration and retention in mucosal tissues. Thus, expression of the gut homing marker, chemokine receptor CCR9 was investigated. […] Retinoic acid (RA) was included as a positive control. RA is present in murine plasma at approximately […] and is predicted to exist at higher concentrations in tissue microenvironments in vivo. Thus, 1 uM was used as a conservative estimate of relevant physiological concentration. Indole's effect was even more profound than that of retinoic acid, a known inducer of mucosal homing markers on T cells (see, e.g., Iwata M, et al. (2004) Retinoic Acid Imprints Gut-Homing Specificity on T Cells. Immunity 21(4):527-538). […]

A further data set has as its system MHC-II and CD86. Particulars: BMDC, indole from day 0, 3, or 6, LPS stimulation.
The next data set has as its system naïve CD4+CD25− T cells. Put plainly: DC-T cell co-culture, monoclonal (OT-II, OVA323-339) stimulation: Foxp3+ Treg induction. The format is cell-based, mouse. How it is done: FIG. 16 graphically illustrates that indole-conditioned DCs preferentially induce Foxp3+ Tregs (monoclonal stimulation). Naïve CD4+CD25− T cells from OT-II TCR transgenic mice were isolated and labeled with cell proliferation dye. Naïve T cells were then co-cultured with OVA323-339 peptide-loaded BMDCs for 72 hours in the presence of TGF-β as indicated. BMDCs were previously treated with indole, RA, or DMF from day 3. Following 3 days of co-culture, surface and intracellular staining was performed for flow cytometric analysis. The mean percentage of Foxp3-positive […] from four independent experiments is shown. * indicates p<0.05 for one-way ANOVA followed by Dunnett's post-test.
FIGS. 20A and 20B graphically illustrate that T cell skewing mediated by indole-conditioned DCs is AhR-independent. BMDCs were differentiated from WT or AhR-KO mice and conditioned with indole, RA, or DMF from day 3. DCs were then loaded with OVA323-339 and co-cultured with naïve CD4+CD25− T cells from OT-II transgenic mice for 72 hours. For Th1 cultures, T cells were restimulated with PMA and ionomycin in the presence of golgiplug for the last 5 hours of culture. Subsequently, all cultures were stained and analyzed by flow cytometry for Foxp3 to identify Tregs or (B) IFNγ to identify Th1 cells.
To investigate whether indole-conditioned DCs preferentially induce Tregs, a co-culture system using FACS-sorted wild-type naïve CD4+CD25− T cells was employed. These naïve T cells were activated by antibodies against CD3 and CD28 in the presence of indole-conditioned BMDCs and cultured for 72 hours. Under this platform for polyclonal stimulation, a 2-fold increase in Treg induction in indole-DC cultures compared to controls was observed (FIG. 15). Additionally, the inventors pursued the same question in a more physiologically relevant model; i.e., under monoclonal T cell stimulation. […]

The next data set concerns DCs. Put plainly: DC viability: lactate dehydrogenase release and propidium iodide uptake. Particulars: versus solvent controls.
A further data set concerns aldh1a2. Put plainly: aldh1a2 gene expression in BMDCs, real-time qPCR. The format is cell-based, murine. The settings on record: day 7 BMDCs cultured with indole from day 3. As to the method: FIG. 13A: BMDCs were cultured from day 3 with indole (1 mM), retinoic acid (1 uM), or DMF control were assayed for aldehyde dehydrogenase (ALDH) activity using the Aldefluor commercial kit. The ALDH inhibitor, DEAB reagent, was included to control for background fluorescence. Aldefluor fluorescence as a measure of ALDH activity was analyzed by flow cytometry. Data is reported as percentage of Aldefluor positive DCs (left panel) and corresponding MFI values (right panel). Individual dots represent data from five independent experiments. FIG. 13B: Gene expression of aldh1a2 was assayed by real-time qPCR in day 7 BMDCs cultured with indole from day 3. Gene expression was normalized to 18 s ribosomal RNA. Mean of three independent experiments. *p<0.05 by Student's t test.
Total RNA was extracted from BMDCs using RNeasy Mini Kit (Qiagen) and then retro-transcribed using cDNA Superscript Mastermix (Quanta). Quantitative PCR reactions were carried out in triplicate using Perfecta SYBR Green Fast Mix, Low ROX (Quanta).
Gene expression levels for each individual sample were normalized to 18 s. Mean relative gene expression was determined and differences were calculated using the 2^−ΔC(t) method.
For orientation: Real-time PCR tracks product formation cycle by cycle.

Description for MHC-II and CD86: Upon encountering and engulfing antigen, DCs upregulate their expression of maturation markers including MHC-II and the co-stimulatory molecule, CD86.
All primary cells were cultured in RPMI 1640 supplemented with 2-mercaptoethanol, gentamicin, penicillin, streptomycin, and 10% FCS (all from Life Technologies). Bone marrow-derived dendritic cells were cultured as previously described (Inaba K, et al. (1992) Generation of large numbers of dendritic cells from mouse bone marrow cultures supplemented with granulocyte/macrophage colony-stimulating factor. The Journal of Experimental Medicine 176(6):1693-1702) with slight modifications. Briefly, bone marrow cells were harvested from murine femurs and cultured in complete media supplemented with 10% FCS, 20 ng/ml GM-CSF (Peprotech), and 10 ng/ml IL-4 (Peprotech). Media was replenished at day 2, 4, and 6 of the 7 day culture.

`c1ccc2[nH]ccc2c1` [Indole, indole]: the “surface expression of CCR9 on conditioned DCs” value with CCR9 turned out to be 34%. Besides, the “DC maturation (MHC-II and CD86 expression)” value in the data set with MHC-II and CD86 was “did not alter DC maturation”. The “Treg induction above solvent controls” value in the data set with naïve CD4+CD25− T cells (BMDCs conditioned with indole, exogenous TGF-β absent or 2 ng/ml) is recorded as “Significance was not reached”; in the data set with naïve CD4+CD25− T cells (OT-II T cells with OVA-loaded BMDCs conditioned with indole, TGF-β at 10 and 30 ng/ml), 3.5 fold. The “AhR dependence of Treg skewing” value in the data set on naïve CD4+CD25− T cells (indole-conditioned BMDCs from wild-type or AhR−/− mice) was “entirely independent of AhR”. Moreover, in the data set on DCs, the “cytotoxicity in DCs” value is “did not induce cytotoxicity”. Also, the aldh1a2 expression result in the data set on aldh1a2 is “inhibits”.
